From patent US20210379012A1, “ANTIANGIOGENIC CHROMANE DERIVATIVE AND USES THEREOF” (Indiana University Research and Technology Corporation, priority 2018, published 2021)

Legend:
Format in all cases: cell-based
Y79 retinoblastoma cells = assay: alamarBlue proliferation assay, Y79; settings: 48 hours' incubation
Description: (§1) EBM-2 and IMDM growth media were purchased from Lonza (Walkersville, Md., USA). RPMI and DMEM media were purchased from Thermo Scientific (Waltham, Mass., USA). ARPE19 cells were obtained from ATCC (Manassas, Va., USA). HRECs and Attachment Factor were purchased from Cell Systems (Kirkland, Wash., USA) and were used between passages 5 and 8. Endothelial Growth Medium (EGM-2) was prepared by mixing the contents of an EGM-2 “Bullet Kit” (Cat. no. CC-4176) with Endothelial Basal Medium (EBM) (Lonza). The EGM-2 “Bullet Kit” contains hydrocortisone, human fibroblast growth factor (hFGF), VEGF, R3-insulin like growth factor (R3-IGF-1), ascorbic acid, human epidermal growth factor (hEGF), gentamycin and heparin along with 2% fetal bovine serum (FBS). ARPE19 cells were grown in DEM medium containing 10% FBS and 1% penicillin-streptomycin (pen-strep). 92-1 cells were grown in RPMI medium containing 10% FBS and 1% pen-strep. Y79 cells were grown in RB medium (IMDM+10% FBS+55 μM β-mercaptoethanol+10 μg/mL Insulin+1% pen-strep). […]
(§2) The proliferation of cells was monitored by an alamarBlue based fluorescence assay. […] At the end of the incubation, 11.1 μL of alamarBlue reagent was added and 4 hours after, fluorescence readings were taken with excitation and emission wavelengths of 560 nm and 590 nm respectively. Data were analyzed and dose response curves generated using GraphPad Prism software (v. 6.0).

[1] = test system: 92-1 uveal melanoma cells; assay: alamarBlue proliferation assay, 92-1; settings: 48 hours' incubation
Description: as §1, §2

[2] = test system: ARPE19 retinal pigment epithelial cells; assay: alamarBlue proliferation assay, ARPE19; settings: Homo sapiens, ARPE-19, 48 hours' incubation
Description: as §1, §2

[3] = test system: human retinal endothelial cells (HRECs); assay: alamarBlue proliferation assay, HRECs; settings: HREC, 48 hours' incubation
Description: as §1, §2

- GI50 (Y79 retinoblastoma cells): 17 µM
- GI50 [1]: 28 µM
SMILES: COc1ccc(CC2COc3cc(OC)c(OC)c(OC)c3C2)cc1O (stereo not shown) [compound (1)]
- GI50 [2]: > 100 µM
- GI50 [3]: 0.00152 µM
